{"source": "patent US7601685B2", "about": "“Growth factor modified protein matrices for tissue engineering” (Eidgenossische Technische Hochschule Zurich, priority 1998, dated 2009)", "key": {"sheep drill defect": {"system": "sheep drill defect", "assay": "Sheep bone drill defect healing", "assay_type": "in vivo", "conditions": "healing time 8 weeks", "protocol": "To form the fibrin gel, the dilute precursors were mixed together by injecting the fibrinogen into the tube containing the thrombin. In case of the sheep drill defect (as described below) this mixture was then injected immediately into a drill defect created in sheep cancellous bone, where a fibrin gel formed within 1-5 minutes. In the first series of animal experiments, the efficacy of a fusion protein containing PTH1-34 as the bioactive factor ([…], SEQ ID NO:38) in healing cortical bone was tested in a small animal model. The sequence, YKNR, makes the linkage plasmin degradable (“TG-pl-PTH1-34). The TG-pl-PTH1-34 was made by chemical synthesis. […] The purity of the TG-pl-PTH1-34 was determined to be 95%.\nTG-pl-PTH1-34 was tested as well in a long bone defect model to test the effect of this hormone on healing bone. In the sheep drill defect model, 8 mm cylindrically drill defects that were approximately 15 mm deep were placed in both the proximal and distal region of the femur and humerus bones. Since the defect was placed in the epiphysis of the long bones, the defect was surrounded by trabecular bone with a thin layer of cortical bone at the rim of the defect. These defects were then filled with an in situ polymerizing fibrin (about 750 μL) that contained various doses of TG-pl-PTH1-34. or TGPTH1-34. Animals were allowed to heal for eight weeks and then were sacrificed. The defect was analyzed with μCT and histology.\nFor this series of experiments, three types of compositions were tested. First, TG-pl-PTH1-34 was tested over a large concentration range. […] Thus, TGPTH1-34 could only be liberated by degradation of the fibrin matrix itself. TGPTH1-34 was produced and purified similar to TG-pl-PTH1-34. Purity was determined to be 95%. TGPTH1-34 was tested at several concentrations that were similar to the concentrations of TG-pl-PTH1-34 to compare efficacy. Finally, matrices were made in the presence of granular material, with either TGPTH1-34 or TG-pl-PTH1-34. The granular material was a standard tricalcium phosphate/hydroxyapatite mixture which was embedded in the matrix during gelation. The effect of adding these granules on the efficacy of PTH1-34 was explored. As a control, unmodified fibrin was tested.\nThe fibrin gel for all experiments was made as described in Example 7. The sheep bone defects were prepared as described in Example 7. The defects were filled with 750 μL of fibrin matrix alone (control) or with TG-pl-PDGFAB, TG-pl-IGF1 or TG-pl-BMP2. The sheep were allowed to heal for eight weeks and were then sacrificed. The explanted defect area was examined with μCT to evaluate the degree of new bone formation."}, "[1]": {"system": "critical size rat cranial defect", "assay": "Rat critical size cranial defect healing", "assay_type": "in vivo", "conditions": "for Healing (% defect filled with bone): Time 63 Days"}, "chick DRGs": {"system": "chick DRGs", "assay": "Neurite extension of DRGs in fibrin matrices with immobilized β-NGF fusion proteins", "assay_type": "cell-based", "from_the_text": "FIG. 3 is a graph of the effect of immobilized β-NGF fusion proteins on DRG neurite extension within fibrin matrices. Mean values and standard error of the mean are shown. ▪ denotes native NGF. ♦ denotes TG-P-NGF. ● denotes TG-Pi-NGF. * denotes p<0.0001 versus unmodified fibrin with NGF in the culture medium.\nTo determine the ability of covalently immobilized β-NGF fusion protein to be delivered in a controlled manner, β-NGF fusion proteins were incorporated into fibrin matrices during polymerization, and the ability of these matrices to enhance neurite extension in vitro was assayed using chick DRGs. […] A dose response effect for TG-P-NGF fusion protein was observed, with an optimal dose attained when 1-5 μg/mL of β-NGF fusion protein was present in the polymerization mixture. […] Despite the lower activity of the β-NGF fusion proteins in the PC12 cell activity assay, when the plasmin degradable β-NGF fusion protein was covalently coupled to fibrin, it promoted greater levels of neurite extension than the same dose of native NGF in the culture medium."}, "[2]": {"system": "chronic leg ulcers of the venous stasis origins", "assay": "Chronic wound healing on skin in human patients", "assay_type": "in vivo", "protocol": "TG-pl-PDGF AB as described in Example 7 was incorporated into fibrin gels at 33 μg/mL gel and applied topically to patients with chronic leg ulcers of the venous stasis origins (at the Dermatology Klinik of the University Hospital Zürich.)\nThe fibrin gels were made from Baxter TISSUCOL® kits (Baxter AG, CH 8604 Volketswil) by diluting the fibrinogen component with Citrate-Glycine buffer (pH 7.3) and diluting the thrombin component with 40 mM Calcium chloride-glycine buffer (pH 7.0). The final concentration of fibrinogen in the applied fibrin gel was about 12.5 mg fibrinogen/mL gel. The thrombin concentration was varied to improve handling of the gels. The final concentration of thrombin in the applied fibrin gel was about 4 to 50 U/mL. TG-pl-PDGF AB was added to the diluted fibrinogen component at 66 μg/mL for a total of 33 μg/mL gel concentration. The diluted fibrinogen and thrombin components were packed in separate sterile syringes at the same volume and deep frozen at −20° C. until use.\nThe gels were applied via a dual syringe system as provided in the TISSUCOL® kit from Baxter. Briefly, each syringe contained either diluted fibrinogen or diluted thrombin. The two syringes were connected to an applicator set and joined by a tip with a blunt cannula. To form a gel, both components were pushed out of the syringes simultaneously, making a 1:1 mixture fibrin gel directly on the ulcer area. Ulcers were covered with a thin sheath of gel, which was allowed to dry for 2 minutes before standard dressing and compression bandaging was applied."}, "[3]": {"system": "day 8 chick embryonic dorsal root ganglia", "assay": "Dorsal root ganglia neurite extension in fibrin gels with peptide/heparin-bound growth factor", "assay_type": "cell-based", "conditions": "DRG", "from_the_text": "FIG. 2 is a graph of the effect of matrix bound bFGF on DRG neurite extension at 48 hr. Mean values and standard deviation of the mean are shown. (* denotes p<0.05 compared with unmodified fibrin.)\nIn order to evaluate this approach to release of heparin-binding growth factors from fibrin cell in-growth matrices that also comprise a covalently linked bi-domain peptide, one domain of which is a factor XIIIa substrate and one domain of which is a heparin-binding domain based on antithrombin III, dorsal root ganglia were cultured three-dimensionally within fibrin gels under a variety of conditions, as shown in the below.\nCross-linking Protocol for Use of Heparin-Binding Peptides: • 1) Dialyze fibrinogen (8 mg/ml) versus 4 L of Tris buffered saline (33 mM Tris), pH 7.4 for 24 hours. • 2) Sterile filter fibrinogen using a 0.2 μm syringe filter. • 3) Make the following peptide solutions:\n• 4) Make thrombin solution: 100 units in 5 ml TBS. • 5) Add 1.4 ml of fibrinogen to each peptide solution. • 6) Make gels: Add 20 μl of TBS+50 mM CaCl2, 40 μl of thrombin solution (20 units/ml), and 340 μl of peptide solution+fibrinogen. (above solutions make 6 gels). • 7) Incubate at 37° C. for 1 hr. • 8) Wash 5 times in 24 hours. Use 1 ml of TBS the first 4 times and neuronal media the last time. • 9) Dissect day 8 chick embryonic dorsal root ganglia. • 10) Place one ganglia in each gel and place at 37° C. for 1 hr. • 11) Add 1 ml of neuronal media to each gel. • 12) Change media after 24 hours."}, "fibrin gels": {"molecular_target": "fibrin gels (Homo sapiens, UniProt P02671+P02675+P02679)", "sequence (P02671 20-644 isoform P02671-2 limits assumed)": "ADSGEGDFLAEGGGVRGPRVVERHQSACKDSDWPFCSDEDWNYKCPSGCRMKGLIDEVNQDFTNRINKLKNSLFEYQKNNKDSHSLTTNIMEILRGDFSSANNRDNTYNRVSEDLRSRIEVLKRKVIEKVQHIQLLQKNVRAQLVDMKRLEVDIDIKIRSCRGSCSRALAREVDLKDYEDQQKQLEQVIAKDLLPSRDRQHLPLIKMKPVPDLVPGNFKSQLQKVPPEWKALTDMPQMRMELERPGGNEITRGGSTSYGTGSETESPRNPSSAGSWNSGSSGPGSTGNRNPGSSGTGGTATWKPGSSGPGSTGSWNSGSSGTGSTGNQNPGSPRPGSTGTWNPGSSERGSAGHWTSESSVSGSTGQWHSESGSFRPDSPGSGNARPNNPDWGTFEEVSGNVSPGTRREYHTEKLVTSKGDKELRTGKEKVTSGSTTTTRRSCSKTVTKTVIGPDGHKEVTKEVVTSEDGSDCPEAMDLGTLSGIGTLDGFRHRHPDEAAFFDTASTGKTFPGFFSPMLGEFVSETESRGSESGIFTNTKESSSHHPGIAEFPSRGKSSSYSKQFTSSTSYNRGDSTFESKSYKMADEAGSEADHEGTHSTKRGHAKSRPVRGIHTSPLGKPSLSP", "sequence (P02675 45-491 limits assumed)": "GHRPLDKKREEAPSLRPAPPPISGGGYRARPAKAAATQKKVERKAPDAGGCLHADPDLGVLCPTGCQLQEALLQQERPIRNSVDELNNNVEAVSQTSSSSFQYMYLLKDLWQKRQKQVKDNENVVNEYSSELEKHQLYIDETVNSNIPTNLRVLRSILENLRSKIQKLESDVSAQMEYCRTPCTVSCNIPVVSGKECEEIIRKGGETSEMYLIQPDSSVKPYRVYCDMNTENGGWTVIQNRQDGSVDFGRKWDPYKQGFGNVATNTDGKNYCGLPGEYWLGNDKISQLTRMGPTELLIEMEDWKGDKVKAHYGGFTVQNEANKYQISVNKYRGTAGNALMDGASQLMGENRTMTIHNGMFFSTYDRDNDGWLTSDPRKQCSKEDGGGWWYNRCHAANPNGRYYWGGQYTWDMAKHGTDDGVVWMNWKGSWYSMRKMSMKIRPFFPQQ", "sequence (P02679 27-437 isoform P02679-2 limits assumed)": "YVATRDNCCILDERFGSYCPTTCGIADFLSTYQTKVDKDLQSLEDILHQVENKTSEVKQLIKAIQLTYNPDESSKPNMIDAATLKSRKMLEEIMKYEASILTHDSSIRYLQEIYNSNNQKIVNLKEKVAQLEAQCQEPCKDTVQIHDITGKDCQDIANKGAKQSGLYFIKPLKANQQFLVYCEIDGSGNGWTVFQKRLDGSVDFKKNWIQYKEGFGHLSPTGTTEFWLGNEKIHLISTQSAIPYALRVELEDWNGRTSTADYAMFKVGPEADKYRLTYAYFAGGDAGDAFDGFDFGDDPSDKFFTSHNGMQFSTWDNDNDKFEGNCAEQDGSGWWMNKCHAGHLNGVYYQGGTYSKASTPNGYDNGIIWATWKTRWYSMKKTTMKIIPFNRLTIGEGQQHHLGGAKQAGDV", "conditions": "cross-linked during polymerization; gels degraded with plasmin; n=10", "protocol": "Size exclusion chromatography was used to determine the amount of peptide cross-linked to fibrin gels using the previously developed incorporation method. A bi-domain peptide containing the heparin-binding domain from antithrombin III and a fluorescent label was incorporated into fibrin gels during polymerization. The free peptide was washed from the gels, and the fibrin network was degraded with plasmin. The degradation products were analyzed by high performance liquid chromatography (size exclusion chromatography) to determine the amount of peptide (by fluorescence) present per mole of fibrinogen (by UV absorbance)."}, "[4]": {"conditions": "Dose 400 μg/mL in fibrin matrix"}, "[5]": {"conditions": "Dose 1000 μg/mL in fibrin matrix"}, "[6]": {"conditions": "fusion protein covalently immobilized in fibrin matrix"}}}
{"substance": "NQEQVSPLSVSEIQLMHNLGKHLN SMERVEWLRKKLQDVHNF (NQEQVSPLSVSEIQLMHNLGKHLNSMERVEWLRKKLQDVHNF; Modified parathyroid hormone from Homo sapiens) [TGPTH1-34]", "values": [{"measurement": "Healing (% defect filled with bone)", "setting": "sheep drill defect; [4]", "result": 40, "unit": "%"}, {"measurement": "Healing (% defect filled with bone)", "setting": "sheep drill defect; [5]", "result": 65, "unit": "%"}]}
{"substance": "NQEQVSPLYKNRSVSEIQLMHNLGKHLNSMERVEWLRKKLQDVHNF (Modified parathyroid hormone from Homo sapiens) [TG-pl-PTH1-34]", "values": [{"measurement": "level of healing", "setting": "[1]; 3 week timepoint", "result": "very similar to that observed with a fibrin matrix alone"}, {"measurement": "Healing (% defect filled with bone)", "setting": "[1]; Dose 10 μg/ml in fibrin matrix", "result": 43, "unit": "%"}, {"measurement": "Healing (% defect filled with bone)", "setting": "[1]; Dose 200 μg/ml in fibrin matrix", "result": 50, "unit": "%"}, {"measurement": "Healing (% defect filled with bone)", "setting": "[1]; Dose 500 μg/ml in fibrin matrix", "result": 62, "unit": "%"}, {"measurement": "increase of healing response", "setting": "[1]; high dose, 7 weeks, versus fibrin alone", "result": 65, "unit": "%"}, {"measurement": "Healing (% defect filled with bone)", "setting": "sheep drill defect; Dose 50 μg/mL in fibrin matrix", "result": 31.3, "unit": "%"}, {"measurement": "Healing (% defect filled with bone)", "setting": "sheep drill defect; Dose 100 μg/mL in fibrin matrix", "result": 59.7, "unit": "%"}, {"measurement": "Healing (% defect filled with bone)", "setting": "sheep drill defect; [4]", "result": 73, "unit": "%"}, {"measurement": "Healing (% defect filled with bone)", "setting": "sheep drill defect; [5]", "result": 77, "unit": "%"}]}
{"substance": "TG-P-NGF: β-NGF fusion protein with factor XIIIa substrate NQEQVSPL and functional plasmin substrate LIK/MKP (SEQ ID NO:24)", "values": [{"measurement": "optimal dose of β-NGF fusion protein in the polymerization mixture for neurite extension", "setting": "chick DRGs; dose response in fibrin matrices", "result": "1 to 5", "unit": "µg/mL"}, {"measurement": "enhancement of neurite extension over unmodified fibrin with 10 ng/mL of native NGF in medium", "setting": "chick DRGs; [6]", "result": "up to 50%"}, {"measurement": "enhancement of neurite extension versus unmodified fibrin with no NGF present in the culture medium", "setting": "chick DRGs; [6]", "result": "over 350%"}]}
{"substance": "TG-pl-IGF1: IGF1 fusion protein with TG-pl-hook (SEQ ID NO:42)", "values": [{"measurement": "Healing (% defect filled with bone)", "setting": "sheep drill defect; Dose 67 μg/mL in fibrin matrix", "result": 41.5, "unit": "%"}]}
{"substance": "TG-pl-PDGFAB: PDGF AB heterodimer with 21 amino acid TG-pl-hook on both N termini (SEQ ID NO:40 and 41)", "values": [{"measurement": "Healing (% defect filled with bone)", "setting": "sheep drill defect; Dose 60 μg/mL in fibrin matrix", "result": 39.5, "unit": "%"}, {"measurement": "healing response", "setting": "[2]; 33 μg/mL fibrin gel, topical, all three patients", "result": "enhanced healing response"}, {"measurement": "time to complete healing of wound", "setting": "[2]; 33 μg/mL fibrin gel, topical, one patient, wound about 2 cm^2", "result": "≤ 4", "unit": "weeks"}, {"measurement": "time to complete healing of wound", "setting": "[2]; 33 μg/mL fibrin gel, topical, third patient, deep wound down to the periost (1 cm^2)", "result": 15, "unit": "weeks"}, {"measurement": "decrease in wound bed depth as well as surface area", "setting": "[2]; 33 μg/mL fibrin gel, topical, two large wounds on one patient (up to 17 cm^2), after 8 weeks", "result": "30-50%"}, {"measurement": "healing versus standard treatment alone", "setting": "[2]; fibrin gel treatment, doctors' assessment", "result": "strong enhancement of healing"}]}
{"substance": "VEGF", "values": [{"measurement": "effect on neurite extension", "setting": "[3]; 1.0 μg/ml bound VEGF", "result": "did not increase neurite extension"}]}
{"substance": "bFGF: basic fibroblast growth factor, heparin-binding growth factor", "values": [{"measurement": "effect on neurite extension", "setting": "[3]; 1 μg/ml and 5 μg/ml of bound bFGF (peptide + heparin in fibrin), dose dependent, 48 hr", "result": "increased"}, {"measurement": "effect on neurite outgrowth", "setting": "[3]; bFGF added without peptide and heparin, gels washed, 48 hr", "result": "does not enhance neurite outgrowth"}]}
{"substance": "dLNQEQVSPK(βA)FAKLAARLYRKA", "values": [{"measurement": "incorporation of peptide into fibrin", "setting": "fibrin gels", "result": "8.7±0.2 moles of peptide per mole of fibrinogen"}]}
